pIC50: −log10 of the molar value.
Legend:
[1] = target: Serine/threonine-protein kinase PAK 3 (Homo sapiens) (UniProt O75914); conditions: Compound concentration 100.0 nM
[2] = target: Phosphatidylinositol 5-phosphate 4-kinase type-2 gamma (Homo sapiens) (UniProt Q8TBX8); conditions: Compound concentration 100.0 nM
[3] = target: Serine/threonine-protein kinase haspin (Homo sapiens) (UniProt Q8TF76); conditions: Compound concentration 100.0 nM
[4] = target: Calcium/calmodulin-dependent protein kinase type II subunit gamma (Homo sapiens) (UniProt Q13555); conditions: Compound concentration 100.0 nM
[5] = target: Inhibitor of nuclear factor kappa-B kinase subunit epsilon (Homo sapiens) (UniProt Q14164); conditions: Compound concentration 100.0 nM
[6] = target: Tyrosine-protein kinase FRK (Homo sapiens) (UniProt P42685); conditions: Compound concentration 100.0 nM
[7] = target: Mitogen-activated protein kinase kinase kinase 6 (Homo sapiens) (UniProt O95382); conditions: Compound concentration 100.0 nM
[8] = target: Dual specificity mitogen-activated protein kinase kinase 5 (Homo sapiens) (UniProt Q13163); conditions: Compound concentration 100.0 nM
[9] = target: Mitogen-activated protein kinase 11 (Homo sapiens, UniProt Q15759); conditions: Compound concentration 100.0 nM
[10] = target: RAC-alpha serine/threonine-protein kinase (Homo sapiens) (UniProt P31749); conditions: Compound concentration 100.0 nM
[11] = target: Mitogen-activated protein kinase kinase kinase kinase 2 (Homo sapiens) (UniProt Q12851); conditions: Compound concentration 100.0 nM
[12] = target: Phosphatidylinositol 4-phosphate 3-kinase C2 domain-containing subunit beta (Homo sapiens) (UniProt O00750); conditions: Compound concentration 100.0 nM
[13] = target: Casein kinase II subunit alpha' (Homo sapiens) (UniProt P19784); conditions: Compound concentration 100.0 nM
[14] = target: Ribosomal protein S6 kinase alpha-5 (Homo sapiens) (UniProt O75582); conditions: Compound concentration 100.0 nM
[15] = target: Ankyrin repeat and protein kinase domain-containing protein 1 (Homo sapiens) (UniProt Q8NFD2); conditions: Compound concentration 100.0 nM
[16] = target: Histamine H3 receptor (Homo sapiens) (UniProt Q9Y5N1); conditions: Compound concentration 10.0 uM
[17] = target: Alpha-1D adrenergic receptor (Homo sapiens) (UniProt P25100); conditions: Compound concentration 10.0 uM
[18] = target: D(3) dopamine receptor (Homo sapiens) (UniProt P35462); conditions: Compound concentration 10.0 uM
[19] = target: T1, GABA-A receptor; anion channel (Rattus norvegicus) (UniProt O09028+P15431+P18506+P18508+P19969+P20236+P23574+P23576+P28471+P28473+P30191+P62813+P63079+P63138+Q91ZM7+Q9ES14); conditions: Compound concentration 10.0 uM
[20] = target: D(1B) dopamine receptor (Homo sapiens) (UniProt P21918); conditions: Compound concentration 10.0 uM
[21] = target: Serine/threonine-protein kinase B-raf (Homo sapiens, UniProt P15056); experiment: NanoBRET (SGC-Frankfurt) (BRAF)
[22] = target: Sigma intracellular receptor 2 (Homo sapiens) (UniProt Q5BJF2); conditions: Compound concentration 10.0 uM
[23] = target: D(1A) dopamine receptor (Homo sapiens) (UniProt P21728); conditions: Compound concentration 10.0 uM
[24] = target: Muscarinic acetylcholine receptor M4 (Homo sapiens) (UniProt P08173); conditions: Compound concentration 10.0 uM
[25] = target: Beta-2 adrenergic receptor (Homo sapiens) (UniProt P07550); conditions: Compound concentration 10.0 uM
[26] = target: Muscarinic acetylcholine receptor M1 (Homo sapiens) (UniProt P11229); conditions: Compound concentration 10.0 uM
[27] = target: Serine/threonine-protein kinase 38-like (Homo sapiens, UniProt Q9Y2H1); experiment: NanoBRET (SGC-Frankfurt) (STK38L)
[28] = target: 5-hydroxytryptamine receptor 2B (Homo sapiens) (UniProt P41595); conditions: Compound concentration 10.0 uM
[29] = target: Alpha-2B adrenergic receptor (Homo sapiens) (UniProt P18089); conditions: Compound concentration 10.0 uM
[30] = target: 5-hydroxytryptamine receptor 6 (Homo sapiens) (UniProt P50406); conditions: Compound concentration 10.0 uM
[31] = target: Muscarinic acetylcholine receptor M3 (Homo sapiens) (UniProt P20309); conditions: Compound concentration 10.0 uM
[32] = target: 5-hydroxytryptamine receptor 2C (Homo sapiens) (UniProt P28335); conditions: Compound concentration 10.0 uM
[33] = target: 5-hydroxytryptamine receptor 3A (Homo sapiens) (UniProt P46098); conditions: Compound concentration 10.0 uM
Rattus norvegicus = species: Rattus norvegicus; conditions: Compound concentration 10.0 uM
[34] = target: Sodium-dependent serotonin transporter (Homo sapiens) (UniProt P31645); conditions: Compound concentration 10.0 uM
[35] = target: 5-hydroxytryptamine receptor 7 (Homo sapiens) (UniProt P34969); conditions: Compound concentration 10.0 uM
[36] = target: D(4) dopamine receptor (Homo sapiens) (UniProt P21917); conditions: Compound concentration 10.0 uM
[37] = target: Kappa-type opioid receptor (Homo sapiens) (UniProt P41145); conditions: Compound concentration 10.0 uM
[38] = target: Alpha-1A adrenergic receptor (Homo sapiens) (UniProt P35348); conditions: Compound concentration 10.0 uM
[39] = target: D(2) dopamine receptor (Homo sapiens) (UniProt P14416); conditions: Compound concentration 10.0 uM
[40] = target: Histamine H4 receptor (Homo sapiens) (UniProt Q9H3N8); conditions: Compound concentration 10.0 uM
[41] = target: T1, GABA-A receptor; anion channel (Rattus norvegicus); conditions: Compound concentration 10.0 uM; remark: listed apart in the source
[42] = target: Beta-1 adrenergic receptor (Homo sapiens) (UniProt P08588); conditions: Compound concentration 10.0 uM

Serine/threonine-protein kinase PAK 3 (Homo sapiens), sequence (O75914 whole entry, looked up): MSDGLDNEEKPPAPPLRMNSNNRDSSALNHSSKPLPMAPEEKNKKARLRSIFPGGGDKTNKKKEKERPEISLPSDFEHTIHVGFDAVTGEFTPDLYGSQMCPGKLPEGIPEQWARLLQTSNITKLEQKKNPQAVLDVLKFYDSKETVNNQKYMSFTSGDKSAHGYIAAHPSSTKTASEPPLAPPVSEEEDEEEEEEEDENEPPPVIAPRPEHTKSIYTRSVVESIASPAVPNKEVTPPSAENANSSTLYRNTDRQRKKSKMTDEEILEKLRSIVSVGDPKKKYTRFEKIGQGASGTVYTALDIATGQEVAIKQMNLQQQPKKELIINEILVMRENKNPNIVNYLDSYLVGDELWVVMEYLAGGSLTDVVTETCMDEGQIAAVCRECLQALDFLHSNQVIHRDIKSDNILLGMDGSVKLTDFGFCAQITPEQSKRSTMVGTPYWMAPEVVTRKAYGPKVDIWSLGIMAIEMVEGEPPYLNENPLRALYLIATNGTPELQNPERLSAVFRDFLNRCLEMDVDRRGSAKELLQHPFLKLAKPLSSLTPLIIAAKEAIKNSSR
Mitogen-activated protein kinase kinase kinase 6 (Homo sapiens), sequence (O95382 whole entry): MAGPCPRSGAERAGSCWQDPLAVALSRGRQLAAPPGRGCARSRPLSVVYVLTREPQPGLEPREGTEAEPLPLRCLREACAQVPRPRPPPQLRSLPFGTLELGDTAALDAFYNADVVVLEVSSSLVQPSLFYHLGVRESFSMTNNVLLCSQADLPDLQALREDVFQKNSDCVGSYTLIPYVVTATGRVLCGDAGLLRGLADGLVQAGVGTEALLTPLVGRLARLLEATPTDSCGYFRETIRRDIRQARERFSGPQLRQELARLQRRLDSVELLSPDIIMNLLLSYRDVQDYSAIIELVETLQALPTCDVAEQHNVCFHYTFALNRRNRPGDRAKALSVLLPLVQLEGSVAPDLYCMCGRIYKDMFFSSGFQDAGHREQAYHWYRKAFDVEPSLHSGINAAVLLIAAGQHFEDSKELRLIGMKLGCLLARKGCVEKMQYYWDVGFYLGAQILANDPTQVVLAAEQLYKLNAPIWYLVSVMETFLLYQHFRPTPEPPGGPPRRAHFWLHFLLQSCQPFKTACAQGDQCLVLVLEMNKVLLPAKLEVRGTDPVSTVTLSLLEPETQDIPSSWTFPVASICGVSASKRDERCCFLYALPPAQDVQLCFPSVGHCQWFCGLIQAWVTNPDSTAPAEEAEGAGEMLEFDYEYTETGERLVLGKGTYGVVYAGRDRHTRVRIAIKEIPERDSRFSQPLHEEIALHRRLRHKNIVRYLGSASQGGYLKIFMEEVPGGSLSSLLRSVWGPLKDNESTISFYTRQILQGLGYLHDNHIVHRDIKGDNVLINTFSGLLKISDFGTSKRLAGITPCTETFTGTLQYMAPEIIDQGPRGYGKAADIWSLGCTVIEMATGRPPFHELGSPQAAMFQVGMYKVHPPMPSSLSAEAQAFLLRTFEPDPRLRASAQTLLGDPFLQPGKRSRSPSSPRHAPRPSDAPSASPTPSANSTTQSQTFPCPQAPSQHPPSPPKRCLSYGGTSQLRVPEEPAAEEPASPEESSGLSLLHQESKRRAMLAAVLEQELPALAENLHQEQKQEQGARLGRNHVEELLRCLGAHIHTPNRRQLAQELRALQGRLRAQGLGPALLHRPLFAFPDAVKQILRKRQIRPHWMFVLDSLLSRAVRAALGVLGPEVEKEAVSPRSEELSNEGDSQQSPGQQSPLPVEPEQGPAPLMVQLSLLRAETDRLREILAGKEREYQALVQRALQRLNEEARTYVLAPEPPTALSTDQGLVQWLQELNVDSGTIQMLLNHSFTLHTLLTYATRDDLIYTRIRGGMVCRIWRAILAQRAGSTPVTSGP
RAC-alpha serine/threonine-protein kinase (Homo sapiens), sequence (P31749 whole entry): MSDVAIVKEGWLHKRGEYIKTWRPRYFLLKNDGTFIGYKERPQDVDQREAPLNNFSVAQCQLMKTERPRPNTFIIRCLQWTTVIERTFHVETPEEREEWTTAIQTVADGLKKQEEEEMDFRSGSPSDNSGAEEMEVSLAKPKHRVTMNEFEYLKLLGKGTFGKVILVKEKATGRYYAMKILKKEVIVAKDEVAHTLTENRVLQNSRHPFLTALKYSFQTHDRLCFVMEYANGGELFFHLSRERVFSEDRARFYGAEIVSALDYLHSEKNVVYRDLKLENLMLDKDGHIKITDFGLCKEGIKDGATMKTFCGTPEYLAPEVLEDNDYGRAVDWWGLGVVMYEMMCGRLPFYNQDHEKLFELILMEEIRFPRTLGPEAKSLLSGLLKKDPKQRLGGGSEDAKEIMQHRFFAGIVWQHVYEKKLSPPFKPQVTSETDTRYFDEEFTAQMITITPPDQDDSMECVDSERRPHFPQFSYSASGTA
Phosphatidylinositol 4-phosphate 3-kinase C2 domain-containing subunit beta (Homo sapiens), sequence (O00750 whole entry, the tested form may be a part): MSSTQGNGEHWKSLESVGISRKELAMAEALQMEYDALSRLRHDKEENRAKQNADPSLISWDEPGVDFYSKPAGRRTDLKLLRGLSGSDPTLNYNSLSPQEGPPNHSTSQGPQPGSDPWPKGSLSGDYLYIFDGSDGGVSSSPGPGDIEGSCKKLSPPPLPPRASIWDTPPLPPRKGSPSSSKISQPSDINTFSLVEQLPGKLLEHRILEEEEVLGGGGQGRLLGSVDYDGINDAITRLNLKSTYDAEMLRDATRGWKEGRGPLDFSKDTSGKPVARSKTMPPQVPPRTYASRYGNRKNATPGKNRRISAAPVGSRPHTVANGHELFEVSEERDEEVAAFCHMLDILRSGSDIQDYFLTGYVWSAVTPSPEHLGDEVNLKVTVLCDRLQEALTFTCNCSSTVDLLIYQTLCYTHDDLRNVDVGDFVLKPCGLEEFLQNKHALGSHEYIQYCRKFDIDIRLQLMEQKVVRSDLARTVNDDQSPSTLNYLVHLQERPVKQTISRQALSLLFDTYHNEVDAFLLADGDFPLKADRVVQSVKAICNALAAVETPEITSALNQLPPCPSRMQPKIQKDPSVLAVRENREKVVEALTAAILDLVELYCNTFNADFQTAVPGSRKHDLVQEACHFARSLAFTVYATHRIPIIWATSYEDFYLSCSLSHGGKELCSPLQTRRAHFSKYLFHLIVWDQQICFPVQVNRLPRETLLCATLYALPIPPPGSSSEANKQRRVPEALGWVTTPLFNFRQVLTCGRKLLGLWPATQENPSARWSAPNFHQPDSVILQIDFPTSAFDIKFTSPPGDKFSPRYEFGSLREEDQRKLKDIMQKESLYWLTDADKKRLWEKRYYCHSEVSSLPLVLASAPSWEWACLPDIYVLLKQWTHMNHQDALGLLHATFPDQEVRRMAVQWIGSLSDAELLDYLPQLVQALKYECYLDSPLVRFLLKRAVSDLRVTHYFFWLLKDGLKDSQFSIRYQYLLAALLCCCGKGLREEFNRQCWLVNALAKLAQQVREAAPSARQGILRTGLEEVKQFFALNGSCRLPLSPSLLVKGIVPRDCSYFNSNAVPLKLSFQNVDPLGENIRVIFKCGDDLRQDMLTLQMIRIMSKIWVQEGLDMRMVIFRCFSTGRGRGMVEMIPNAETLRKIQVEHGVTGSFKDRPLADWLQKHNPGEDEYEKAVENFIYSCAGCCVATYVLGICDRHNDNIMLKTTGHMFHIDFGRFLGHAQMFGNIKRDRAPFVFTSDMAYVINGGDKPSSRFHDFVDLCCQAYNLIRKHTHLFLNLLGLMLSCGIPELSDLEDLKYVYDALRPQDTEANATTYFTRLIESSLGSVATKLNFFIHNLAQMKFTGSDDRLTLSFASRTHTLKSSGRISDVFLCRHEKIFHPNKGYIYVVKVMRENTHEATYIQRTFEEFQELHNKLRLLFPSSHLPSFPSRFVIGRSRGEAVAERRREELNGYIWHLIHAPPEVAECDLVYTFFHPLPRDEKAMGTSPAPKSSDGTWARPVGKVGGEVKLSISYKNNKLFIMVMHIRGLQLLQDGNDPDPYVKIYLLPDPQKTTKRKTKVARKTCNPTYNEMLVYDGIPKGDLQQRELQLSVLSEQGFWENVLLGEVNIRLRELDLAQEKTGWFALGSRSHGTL
Casein kinase II subunit alpha' (Homo sapiens), sequence (P19784 whole entry, looked up): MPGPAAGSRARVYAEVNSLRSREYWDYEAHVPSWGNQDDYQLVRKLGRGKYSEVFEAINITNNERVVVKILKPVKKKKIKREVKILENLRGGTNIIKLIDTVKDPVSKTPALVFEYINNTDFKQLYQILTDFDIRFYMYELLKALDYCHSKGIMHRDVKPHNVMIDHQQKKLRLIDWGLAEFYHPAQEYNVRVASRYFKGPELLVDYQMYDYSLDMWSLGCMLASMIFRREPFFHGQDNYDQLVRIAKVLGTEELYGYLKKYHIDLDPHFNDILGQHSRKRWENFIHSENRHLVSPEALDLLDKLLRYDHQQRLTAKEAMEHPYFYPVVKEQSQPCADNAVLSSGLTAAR
Ankyrin repeat and protein kinase domain-containing protein 1 (Homo sapiens), sequence (Q8NFD2 whole entry, the tested form may be a part): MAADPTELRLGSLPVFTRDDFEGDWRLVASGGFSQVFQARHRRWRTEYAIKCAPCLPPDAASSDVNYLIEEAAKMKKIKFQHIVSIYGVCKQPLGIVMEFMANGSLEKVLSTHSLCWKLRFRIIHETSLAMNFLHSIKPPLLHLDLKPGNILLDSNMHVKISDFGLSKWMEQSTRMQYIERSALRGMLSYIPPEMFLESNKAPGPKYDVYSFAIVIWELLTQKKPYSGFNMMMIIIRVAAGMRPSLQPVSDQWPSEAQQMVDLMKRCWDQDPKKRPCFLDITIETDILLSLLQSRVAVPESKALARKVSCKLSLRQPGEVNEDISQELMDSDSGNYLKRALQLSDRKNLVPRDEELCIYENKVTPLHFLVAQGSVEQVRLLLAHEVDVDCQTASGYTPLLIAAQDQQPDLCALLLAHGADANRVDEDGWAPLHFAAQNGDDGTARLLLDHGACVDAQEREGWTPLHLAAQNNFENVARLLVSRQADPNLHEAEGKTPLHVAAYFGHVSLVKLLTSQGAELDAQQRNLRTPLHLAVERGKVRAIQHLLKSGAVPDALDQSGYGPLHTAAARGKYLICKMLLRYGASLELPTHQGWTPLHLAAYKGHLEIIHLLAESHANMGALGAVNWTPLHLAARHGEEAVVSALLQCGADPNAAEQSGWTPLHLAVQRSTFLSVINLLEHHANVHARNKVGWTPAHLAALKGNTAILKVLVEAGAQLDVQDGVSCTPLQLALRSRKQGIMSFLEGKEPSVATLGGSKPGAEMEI

Work on `CS(=O)(=O)N1CCCC(NC(=O)[C@H](CCC2CCCCC2)NC(=O)c2ccc(CNc3ncnc4c3nnn4-c3ccccc3)cc2)C1` (stereo partly specified) [SR-301] yielded a residual activity [1] of 100%, a residual activity [2] of 100% and a residual activity [3] of 100%. It also gave a residual activity [4] of 94%, a residual activity [5] of 73% and a residual activity [6] of 60%. It also gave a residual activity [7] of 100%, a residual activity [8] of 100% and a residual activity [9] of 100%. The residual activity [10] was 100%, the residual activity [11] was 100% and the residual activity [12] was 95%. For the same compound, the residual activity [13] was 85%, the residual activity [14] was 95% and the residual activity [15] was 80%.

Work on `CS(=O)(=O)N1CCCC(NC(=O)[C@H](CCC2CCCCC2)NC(=O)c2ccc(CNC(=O)c3cnc4ccccn34)cc2)C1` (stereo partly specified) [SR-302] yielded an inhibition [16] of 0.32%, a residual activity [1] of 100% and an inhibition [17] of 6.47%. The residual activity [2] was 100%, the residual activity [3] was 74% and the inhibition [18] was 2.38%. It also gave a residual activity [4] of 86%, a residual activity [5] of 100% and an inhibition [19] of 31.9%. It also gave a residual activity [6] of 77%, an inhibition [20] of 23.5% and a pIC50 [21] of less than 4.60. It also gave a residual activity [7] of 100%, an inhibition [22] of 32% and an inhibition [23] of -8.61%. It also gave an inhibition [24] of -2.24%, a residual activity [8] of 97% and an inhibition [25] of 16.3%. The inhibition [26] was 28.4%, the pIC50 [27] was less than 4.60 and the inhibition [28] was 12.2%. For the same compound, the inhibition [29] was 13.5%, the inhibition [30] was 18.2% and the inhibition [31] was 20.6%. It also gave a residual activity [10] of 100%, an inhibition [32] of 8.24% and an inhibition [33] of 3.83%. For the same compound, the inhibition (Rattus norvegicus) was 13.2%, the inhibition [34] was 19.8% and the inhibition [35] was 11.3%. The inhibition [36] was 3.78%, the inhibition [37] was 20.1% and the residual activity [11] was 92%. It also gave an inhibition [38] of 34.9%, an inhibition [39] of 7.14% and an inhibition [40] of -7.56%. The inhibition [41] was 15.8%, the inhibition [42] was 20.3% and the residual activity [12] was 100%. For the same compound, the residual activity [13] was 100% and the residual activity [15] was 92%.

— ChEMBL document CHEMBL4507324 (2021)
